Measurements reported in PMC6271085, “Synthesis and Cytotoxic Evaluation of a Series of 2-Amino-Naphthoquinones against Human Cancer Cells” (Molecules, 2014).
Converted amounts (≈) assume the structure as drawn. “And” between values parts separate entries of the source, which are not always exact repeats. Equal entries are not always repeated. Where two headings read alike, the source gives them in different places.

Legend:
[1] = test system: SF-295 (glioblastoma) cells; assay: MTT cytotoxicity assay, SF-295; format: cell-based; conditions: Homo sapiens; for inhibition at 5 µg/mL: SF-295, 5 µg/mL, 72 h, MTT, read-out: Percentage of inhibition of cell growth (GI%), average; for IC50: SF-295, 72 h, SF-295, 72h exposure
Text: (§1) This experiment evaluated the cytotoxicity of aminonaphthoquinones (ANPQs) against human cancer cells, in vitro. This analysis is part of an initial screening for determination of the potential antitumor of these samples. The human cancer cell strains used were SF-295 (glioblastoma-human), MDAMB-435 (melanoma), HCT-8 (colon), HCT-116 (colon), HL-60 (leukemia), OVCAR-8 (ovarian cancer), NCI-H358M (human bronchoalveolar lung carcinoma) and PC3-M (highly metastatic prostate cancer cell line). All cancer cells were provided by the National Cancer Institute (Rockville, MD, USA) and were cultured in RPMI 1640 supplemented with 10% fetal bovine serum and 1% antibiotics, maintained at 37 °C and atmosphere containing 5% CO2. The peripheral blood mononuclear cells (PBMC) were isolated by gradient of density (Ficoll-Hypaque) and cultivated in RPMI 1640 medium, supplemented with bovine foetal serum (20%), antibiotic (1%) and phytohemagglutinin (4%). The cells were maintained at 37 °C and atmosphere containing 5% CO2.
(§2) The different samples of ANPQs were diluted in pure sterile DMSO. The substances were tested at a concentration of 5 µg·mL^−1. In order to determine the IC50 the substances were tested at increasing concentrations in serial dilutions (5–0.010 µg·mL^−1).
(§3) Analysis of cytotoxicity by the MTT method has been used in the screening program at the National Cancer Institute of the United States (NCI), which tests over 10,000 samples per year. It is a rapid, sensitive and inexpensive test. It was first described by Mosman as having the ability to analyze the viability and the metabolic state of cells. It is a colorimetric analysis based on conversion of the salt 3-(4,5-dimethyl-2-thiazole)-2,5-diphenyl-2H-tetrazolium bromide (MTT) to formazan-blue by the mitochondrial enzymes found only in metabolically active cells. The study of the cytotoxicity by MTT method allows easily defining the cytotoxicity but not the mechanism of action.
(§4) The cells were plated at a concentration of 0.1 × 10^6 cell mL^−1 to OVCAR-8, NCI-H358M, PC3-M, SF-295 and MDA-MB435 strains, 0.7 × 10^5 cell mL^−1 to HCT-8 and HCT-116 strains, 0.3 × 10^6 to HL-60 strain, 1.0 × 10^6 cell mL^−1 to PBMC. The plates were incubated for 72 h at 5% CO2 at 37 °C. After, they were centrifuged and the supernatant removed. Then the solution of MTT (tetrazolium salt, 150 µL) was added, and the plates were incubated for 3 h. The absorbance was read after dissolving the precipitate with 150 µL of pure DMSO in a spectrophotometer plate at 595 nm.

HCT-8 (colon) cells [2] = assay: MTT cytotoxicity assay, HCT-8; format: cell-based; conditions: Homo sapiens; for inhibition at 5 µg/mL: HCT-8, 5 µg/mL, 72 h, MTT, read-out: Percentage of inhibition of cell growth (GI%), average; for IC50: HCT-8, 72 h, HCT-8, 72h exposure
Text: as §1, §2, §3, §4

MDAMB-435 cells = assay: MTT cytotoxicity assay, MDAMB-435; format: cell-based; conditions: Homo sapiens; for inhibition at 5 µg/mL: MDA-MB-435, MDAMB-435, 5 µg/mL, 72 h, MTT, read-out: Percentage of inhibition of cell growth (GI%), average; for IC50: MDA-MB-435, 72 h, MDAMB-435, 72h exposure
Text: as §1, §2, §3, §4

PC3-M (prostate) cells = assay: MTT cytotoxicity assay, PC3-M; format: cell-based; conditions: Homo sapiens, PC-3M, 72 h, 72h exposure
Text: as §1, §2, §3, §4

HCT-116 (colon) cells = assay: MTT cytotoxicity assay, HCT-116; format: cell-based; conditions: Homo sapiens; HCT-116, 72h exposure
Text: as §1, §2, §3, §4

[3] = test system: OVCAR-8 (ovarian cancer) cells; assay: MTT cytotoxicity assay, OVCAR-8; format: cell-based; conditions: Homo sapiens; OVCAR-8, 72h exposure
Text: as §1, §2, §3, §4

[4] = MTT cytotoxicity assay, PBMC; format: cell-based; conditions: peripheral blood mononuclear cells (PBMC); PBMC normal cells, 72h exposure
Text: as §1, §2, §3, §4

[5] = test system: NCI-H358M (bronchoalveolar lung carcinoma) cells; assay: MTT cytotoxicity assay, NCI-H358M; format: cell-based; conditions: Homo sapiens, 72h exposure
Text: as §1, §2, §3, §4

HL-60 (leukemia) cells [6] = assay: MTT cytotoxicity assay, HL-60; format: cell-based; conditions: Homo sapiens; HL-60, 72h exposure
Text: as §1, §2, §3, §4

HCT-8 (colon) cells [7] = test system: HCT-8 (colon) cells; parameters: method as in PMID 16042338; conditions: cited from earlier work
HL-60 (leukemia) cells [8] = test system: HL-60 (leukemia) cells; parameters: method as in PMID 16042338; conditions: cited from earlier work

SMILES | inhibition at 5 µg/mL [1] | inhibition at 5 µg/mL (HCT-8 (colon) cells [2]) | melting point | inhibition at 5 µg/mL (MDAMB-435 cells) | IC50 [1] | IC50 (PC3-M (prostate) cells) | IC50 (HCT-116 (colon) cells) | IC50 [3] | IC50 (HCT-8 (colon) cells [2]) | IC50 at 72 h [4] | IC50 [5] | IC50 (MDAMB-435 cells) | IC50 (HL-60 (leukemia) cells [6]) | IC50 (HCT-8 (colon) cells [7]) | IC50 (HL-60 (leukemia) cells [8])
CCOC(=O)CCNC1=CC(=O)c2ccccc2C1=O [compound 8, Ethyl 3N-(1,4-dioxo-1,4-dihydronaphthalen-2-yl)propanoate] | 32.7% | 28.2% | 120 to 122 °C | 11.7% | – | – | – | – | – | – | – | – | – | – | –
C[C@H](NC1=CC(=O)c2ccccc2C1=O)C(=O)O [compound 5, N-(1,4-Dioxo-1,4-dihydronaphthalen-2-yl)-L-alanine] | 83.8% | 84.1% | – | 100% | 2560 nM | 1.61 µg/mL (≈ 6.57 µM) | 1.11 µg/mL and 4.52 µM | 2.36 µg/mL and 9.61 µM | 3380 nM | 7.34 µg/mL and 29.9 µM | 0.9 µg/mL and 3.36 µM | 1990 nM | 1.05 µg/mL and 4.27 µM | – | –
O=C(O)CNC1=CC(=O)c2ccccc2C1=O [compound 2, 2N-(1,4-Dioxo-1,4-dihydronaphthalen-2-yl)acetic acid] | 81.1% | 81.7% | – | 100% | 0.57 µg/mL and 2.46 µM | > 5 µg/mL and > 21.6 µM | 1.31 µg/mL and 5.66 µM | 3.89 µg/mL and 16.8 µM | 0.89 µg/mL and 3.84 µM | 5.51 µg/mL and 23.8 µM | > 5 µg/mL and > 21.6 µM | 1.21 µg/mL and 5.23 µM | 0.7 µg/mL and 3.02 µM | – | –
CCOC(=O)[C@H](C)NC1=CC(=O)c2ccccc2C1=O [compound 9, Ethyl [(S) 2-(1,4-dioxo-1,4-dihydronaphthalen-2-ylamino)] propanoate] | 75.1% | 75.4% | 65 to 68 °C | 100% | 1.68 µg/mL and 6.13 µM | 2.62 µg/mL and 9.57 µM | 3.11 µg/mL and 11.4 µM | 1.88 µg/mL and 6.87 µM | 1.33 µg/mL and 4.86 µM | 17.6 µg/mL and 64.3 µM | 0.98 µg/mL and 3.58 µM | 1.18 µg/mL and 4.31 µM | 1.74 µg/mL and 6.35 µM | – | –
Cc1cc(=O)c2c(O)c([C@@H]3O[C@H](CO)[C@@H](O)[C@H](O)[C@H]3O)c(O)cc2o1 [biflorin] | – | – | – | – | – | – | – | – | – | – | – | – | – | 0.88 µg/mL (≈ 2.48 µM) | 1950 nM
O=C1C=C(N2CCC[C@H]2C(=O)O)C(=O)c2ccccc21 [compound 4, N-(1,4-Dioxo-1,4-dihydronaphthalen-2-yl)-L-proline] | 59.3% | 59.1% | 164 to 167 °C (dec.) | 36.7% | – | – | – | – | – | – | – | – | – | – | –
O=C(O)CCNC1=CC(=O)c2ccccc2C1=O [compound 3, 3N-(1,4-Dioxo-1,4-dihydronaphthalen-2-yl)propanoic acid] | 56% | 56% | 198 to 200 °C | 26.4% | – | – | – | – | – | – | – | – | – | – | –
CCOC(=O)CCCNC1=CC(=O)c2ccccc2C1=O [compound 10, Ethyl 4-(1,4-dioxo-1,4-dihydronaphthalen-2-ylamino)butanoate] | 49.2% | 49.6% | – | 59.1% | – | – | – | – | – | – | – | – | – | – | –
O=C(O)CCCNC1=CC(=O)c2ccccc2C1=O [compound 11, 4-(1,4-Dioxo-1,4-dihydronaphthalen-2-ylamino)butanoic acid] | 61.2% | 61.4% | – | 11.1% | – | – | – | – | – | – | – | – | – | – | –
O=C1C=C(N[C@@H](Cc2ccccc2)C(=O)O)C(=O)c2ccccc21 [compound 6, N-(1,4-Dioxo-1,4-dihydronaphthalen-2-yl)-L-phenylalanine] | 86.1% | 86.1% | – | 100% | 0.65 µg/mL and 2.01 µM | 1.7 µg/mL and 5.28 µM | 2.15 µg/mL and 6.67 µM | 1.87 µg/mL and 5.81 µM | 1.59 µg/mL and 4.94 µM | 12.2 µg/mL and 37.8 µM | 0.82 µg/mL and 2.54 µM | 1.46 µg/mL and 4.53 µM | 1.31 µg/mL and 4.07 µM | – | –
COc1cccc2c1C(=O)c1c(O)c3c(c(O)c1C2=O)C[C@@](O)(C(=O)CO)C[C@@H]3O[C@H]1C[C@H](N)[C@H](O)[C@H](C)O1 [Dox, Doxorubicin, reference compound] | – | – | – | – | 0.23 µg/mL | 0.2 µg/mL and 360 nM | 0.01 µg/mL and 20 nM | 0.26 µg/mL (≈ 0.478 µM) | 0.07 µg/mL and 130 nM | 0.23 µg/mL and 420 nM | 0.9 µg/mL and 1.65 µM | 0.48 µg/mL and 830 nM | 0.02 µg/mL and 30 nM | – | –
CCOC(=O)CNC1=CC(=O)c2ccccc2C1=O [compound 7, Ethyl 2N-(1,4-dioxo-1,4-dihydronaphthalen-2-yl)acetate] | 99.5% | 99.5% | 93 to 95 °C | 100% | 0.83 µg/mL and 3.19 µM | 1.63 µg/mL and 6.28 µM | 2.13 µg/mL and 8.2 µM | 2 µg/mL and 7.7 µM | 1.84 µg/mL and 7.09 µM | 9 µg/mL and 34.7 µM | 0.64 µg/mL and 2.46 µM | 1.33 µg/mL and 5.12 µM | 1.24 µg/mL and 4.77 µM | – | –
